Assay results: patent publication US10793520B2, “Sulfonylaminobenzamide compound and pest control agent” (Nippon Soda Co., Ltd., priority 2016, dated 2020)

Each compound was assayed on Mythimna separata (assay: Efficacy test against Mythimna separata (treated artificial feed)). Conditions: in vivo.
Experimental: Five parts of the compound of the present invention, 93.6 parts of dimethylformamide and 1.4 parts of a polyoxyethylene alkyl aryl ether were mixed together and dissolved to obtain an emulsion (1) containing 5% of the active constituent.
The mortality rate was calculated using the following equation. Mortality rate (%)=(number of dead pests/number of test pests)×100
First, 0.8 g of an artificial feed (Insecta LFS, manufactured by Nosan Corporation) and 1 μl of the emulsion (I) were mixed thoroughly, and 0.2 g of the resulting mixture was placed in each of the treatment areas of a plastic test container (volume: 1.4 ml) to complete preparation of a test feed.
Two second-instar larvae of Mythimna separata were inoculated into each treatment area, and the test container was sealed with a plastic lid. The sealed container was placed in a temperature-controlled room at 25° C., and the mortality rate and the amount of feed consumed were determined on the fifth day. The test was repeated. Further, a test performed under the same conditions, but with the exception of excluding the compound of the present invention from the emulsion (1), was used as a control.

Question: How did the “mortality rate against Mythimna separata, or amount of feed consumed relative to control” value turn out when `COC(=O)c1cc([N+](=O)[O-])ccc1NC(=O)c1cc(F)c(F)cc1NS(=O)(=O)C(F)(F)F` [a-113] was run?
Answer: 100%, or the amount of feed consumed was 10% or less

Question: How did the “mortality rate against Mythimna separata, or amount of feed consumed relative to control” value turn out when `CON=Cc1cc(Cl)ccc1NC(=O)c1ccc(C(F)(F)F)cc1NS(=O)(=O)C(F)(F)F` [a-115] was run?
Answer: 100%, or the amount of feed consumed was 10% or less

Question: `O=C(Nc1cc(F)c(F)cc1F)c1ccc(C(F)(F)F)cc1NS(=O)(=O)C(F)(F)F` [a-116] was tested. Which “mortality rate against Mythimna separata, or amount of feed consumed relative to control” value did it give?
Answer: 100%, or the amount of feed consumed was 10% or less

Question: How did the “mortality rate against Mythimna separata, or amount of feed consumed relative to control” value turn out when `O=C(Nc1ccc(C(F)(F)F)cc1)c1ccc(-c2ccc(C(F)(F)F)nc2)cc1NS(=O)(=O)C(F)(F)F` [a-118] was run?
Answer: 100%, or the amount of feed consumed was 10% or less

Question: Which “mortality rate against Mythimna separata, or amount of feed consumed relative to control” value does the source give for `O=C(Nc1ccc(C(F)(F)F)c(F)c1)c1ccc(-c2ccc(C(F)(F)F)nc2)cc1NS(=O)(=O)C(F)(F)F` [a-119] here?
Answer: 100%, or the amount of feed consumed was 10% or less

Question: How did the “mortality rate against Mythimna separata, or amount of feed consumed relative to control” value turn out when `O=C(Nc1ccc(F)c(C(F)(F)F)c1)c1ccc(-c2ccc(C(F)(F)F)nc2)cc1NS(=O)(=O)C(F)(F)F` [a-120] was run?
Answer: 100%, or the amount of feed consumed was 10% or less

Question: Which “mortality rate against Mythimna separata, or amount of feed consumed relative to control” value does the source give for `O=C(Nc1ccc([N+](=O)[O-])cc1)c1ccc(-c2ccc(C(F)(F)F)nc2)cc1NS(=O)(=O)C(F)(F)F` [a-121] here?
Answer: 100%, or the amount of feed consumed was 10% or less

Question: Which “mortality rate against Mythimna separata, or amount of feed consumed relative to control” value does the source give for `O=C(Nc1ccc(C(F)(F)F)cc1)c1cc(C(F)(F)F)c(F)cc1NS(=O)(=O)C(F)(F)F` [a-122] here?
Answer: 100%, or the amount of feed consumed was 10% or less

Question: `O=C(Nc1ccc(C(F)(F)F)cc1)c1cc(F)c(C(F)(F)F)cc1NS(=O)(=O)C(F)(F)F` [a-123] was tested. Which “mortality rate against Mythimna separata, or amount of feed consumed relative to control” value did it give?
Answer: 100%, or the amount of feed consumed was 10% or less

Question: With `O=C(Nc1ccc(C(F)(F)F)cc1)c1cc(Br)c(Cl)cc1NS(=O)(=O)C(F)(F)F` [a-124] as the compound, how does the “mortality rate against Mythimna separata, or amount of feed consumed relative to control” value read?
Answer: 100%, or the amount of feed consumed was 10% or less

Question: For `COC(=O)c1c(NC(=O)c2ccc(C(F)(F)F)cc2NS(=O)(=O)C(F)(F)F)ccc(Br)c1F` [a-126], which “mortality rate against Mythimna separata, or amount of feed consumed relative to control” value is on record?
Answer: 100%, or the amount of feed consumed was 10% or less

Question: `O=C(Nc1ccc(C(F)(F)F)cc1)c1cc(F)c(F)cc1NS(=O)(=O)C(F)(F)F` [a-127] was tested. Which “mortality rate against Mythimna separata, or amount of feed consumed relative to control” value did it give?
Answer: 100%, or the amount of feed consumed was 10% or less

Question: With `O=C(Nc1ccc(C(F)(F)F)cc1)c1cc(Cl)c(Cl)cc1NS(=O)(=O)C(F)(F)F` [a-128] as the compound, how does the “mortality rate against Mythimna separata, or amount of feed consumed relative to control” value read?
Answer: 100%, or the amount of feed consumed was 10% or less

Question: Which “mortality rate against Mythimna separata, or amount of feed consumed relative to control” value does the source give for `O=C(Nc1ccc(C(F)(F)F)cc1)c1cc(Cl)c(F)cc1NS(=O)(=O)C(F)(F)F` [a-129] here?
Answer: 100%, or the amount of feed consumed was 10% or less

Question: `COC(=O)c1ccc(C(F)(F)F)cc1NC(=O)c1cc(Br)c(Cl)cc1NS(=O)(=O)C(F)(F)F` [a-131] was tested. Which “mortality rate against Mythimna separata, or amount of feed consumed relative to control” value did it give?
Answer: 100%, or the amount of feed consumed was 10% or less

Question: How did the “mortality rate against Mythimna separata, or amount of feed consumed relative to control” value turn out when `COC(=O)c1cc(F)c(F)cc1NC(=O)c1cc(Cl)c(Br)cc1NS(=O)(=O)C(F)(F)F` [a-132] was run?
Answer: 100%, or the amount of feed consumed was 10% or less

Question: How did the “mortality rate against Mythimna separata, or amount of feed consumed relative to control” value turn out when `CC(=O)c1ccc(C(F)(F)F)cc1NC(=O)c1ccc(C(F)(F)F)cc1NS(=O)(=O)C(F)(F)F` [a-134] was run?
Answer: 100%, or the amount of feed consumed was 10% or less

Question: With `O=C(Nc1ccc(C(F)(F)F)cc1-n1cccn1)c1ccc(C(F)(F)F)cc1NS(=O)(=O)C(F)(F)F` [a-135] as the compound, how does the “mortality rate against Mythimna separata, or amount of feed consumed relative to control” value read?
Answer: 100%, or the amount of feed consumed was 10% or less

Question: `COC(=O)c1ccc(C(F)(F)F)cc1NC(=O)c1cc(Cl)c(F)cc1NS(=O)(=O)C(F)(F)F` [a-137] was tested. Which “mortality rate against Mythimna separata, or amount of feed consumed relative to control” value did it give?
Answer: 100%, or the amount of feed consumed was 10% or less
